Assay results as given in PMC4638293 (The Journal of Veterinary Medical Science, 2015).
Marks after values point to notes of the source that are not given here.

Format: in vivo
Details: rat, PY 4 mg/kg oral; for Total amount in feces: 24 hr feces collection; for Total amount in brain (tissue weight): whole brain; for Total amount in cecum (tissue weight): whole cecum; for Total amount in colon (tissue weight): whole colon; for Total amount in duodenum (tissue weight): whole duodenum; for Total amount in heart (tissue weight): whole heart; for Total amount in ileum (tissue weight): whole ileum; for Total amount in jejunum (tissue weight): whole jejunum; for Total amount in kidney (tissue weight): whole kidney; for Total amount in liver (tissue weight): whole liver; for Total amount in lung (tissue weight): whole lung; for Total amount in spleen (tissue weight): whole spleen; for Total amount in stomach (tissue weight): whole stomach; for Total amount in testes (tissue weight): whole testes; for Total amount in tongue (tissue weight): whole tongue
[1] = 24 hr urine collection, mean ± SD, unit ppb printed
[2] = 24 hr, wet-g, mean ± SD, unit ppb printed
[3] = 24 hr, mean ± SD, unit ppb printed

SMILES | Total amount in feces (mean ± SD) | Concentration in urine [1] | Total amount in brain (tissue weight) (24 hr, mean ± SD) | Total amount in cecum (tissue weight) (24 hr, mean ± SD) | Total amount in colon (tissue weight) (24 hr, mean ± SD) | Total amount in duodenum (tissue weight) (24 hr, mean ± SD) | Total amount in heart (tissue weight) (24 hr, mean ± SD) | Total amount in ileum (tissue weight) (24 hr, mean ± SD) | Total amount in jejunum (tissue weight) (24 hr, mean ± SD) | Total amount in kidney (tissue weight) (24 hr, mean ± SD) | Total amount in liver (tissue weight) (24 hr, mean ± SD) | Total amount in lung (tissue weight) (24 hr, mean ± SD) | Total amount in spleen (tissue weight) (24 hr, mean ± SD) | Total amount in stomach (tissue weight) (24 hr, mean ± SD) | Total amount in testes (tissue weight) (24 hr, mean ± SD) | Total amount in tongue (tissue weight) (24 hr, mean ± SD) | Concentration in cecum [2] | Concentration in colon [2] | Concentration in heart [2] | Concentration in ileum [2] | further results
c1cc2ccc3cccc4ccc(c1)c2c34 [PY, Pyrene] | (380.9 ± 31.2) ng | 4.3 ± 0.0^d,e ppb | (17.5 ± 1.5) ng | (33.0 ± 4.8) ng | (32.0 ± 7.7) ng | (19.4 ± 5.3) ng | (12.7 ± 1.5) ng | (22.0 ± 1.7) ng | (34.5 ± 14.8) ng | (12.1 ± 2.0) ng | (124.5 ± 20.4) ng | (10.7 ± 0.2) ng | (12.4 ± 0.8) ng | (22.4 ± 4.1) ng | (13.3 ± 3.7) ng | (11.4 ± 0.4) ng | – | – | – | – | Total amount in urine (24 hr urine collection, mean ± SD): (40.7 ± 9.6) ng
O=C(O)[C@H]1O[C@@H](Oc2ccc3ccc4cccc5ccc2c3c45)[C@H](O)[C@@H](O)[C@@H]1O [PYOG, Pyrene-1-glucuronide] | – | 10.1 × 10^3 ± 400^c,d ppb | (310 ± 100) ng | (950 ± 70) ng | (1.0 × 10^3 ± 200) ng | – | (860 ± 140) ng | (58 × 10^3 ± 300) ng | – | (18 × 10^3 ± 880) ng | (70 × 10^3 ± 220) ng | (1.7 × 10^3 ± 640) ng | (380 ± 120) ng | (1.7 × 10^3 ± 100) ng | (1.1 × 10^3 ± 390) ng | (420 ± 110) ng | 1.4 × 10^3 ± 100^d ppb | 1.2 × 10^3 ± 300^d ppb | 1.1 × 10^3 ± 200^d ppb | 170.1 × 10^3 ± 700^a ppb | Share of PY excreted via urine as PYOG (24 hr urine): around 10%; Concentration in brain (24 hr, brain, wet-g, mean ± SD, unit ppb printed): 210 ± 60^d ppb; Concentration in duodenum (24 hr, duodenum, wet-g, mean ± SD, unit ppb printed): 65.9 × 10^3 ± 800^b,c ppb; Concentration in jejunum [2]: 87.1 × 10^3 ± 400^b ppb; Concentration in kidney [2]: 20.6 × 10^3 ± 100^c,d ppb; Concentration in liver [2]: 10.2 × 10^3 ± 300^c,d ppb; Concentration in lung [2]: 2.4 × 10^3 ± 900^c,d ppb; Concentration in plasma [3]: 446.0 ± 30^d ppb; Concentration in spleen (24 hr, spleen, wet-g, mean ± SD, unit ppb printed): 790 ± 20^d ppb; Concentration in stomach [2]: 1.7 × 10^3 ± 10^d ppb; Concentration in testes [2]: 1.0 × 10^3 ± 360^d ppb; Concentration in tongue (24 hr, tongue, wet-g, mean ± SD, unit ppb printed): 1.4 × 10^3 ± 500^d ppb
Oc1ccc2ccc3cccc4ccc1c2c34 [PYOH, 1-hydroxypyrene] | (755.8 × 10^3 ± 700) ng | 546 ± 78^b ppb | – | (40.1 × 10^3 ± 100) ng | (11.4 × 10^3 ± 700) ng | (441 ± 29) ng | – | (4.1 × 10^3 ± 400) ng | (1.6 × 10^3 ± 200) ng | (135 ± 19) ng | (8.5 × 10^3 ± 100) ng | – | – | (871 ± 64) ng | (92 ± 37) ng | – | 59.4 × 10^3 ± 800^a,b ppb | 13 × 10^3 ± 800^b ppb | – | – | Share of PY excreted via feces as PYOH (24 hr feces): ~70%
O=S(=O)(O)Oc1ccc2ccc3cccc4ccc1c2c34 [PYOS, Pyrene-1-sulfate] | – | 13 ± 7^b ppb | – | (57 ± 35) ng | (47 ± 16) ng | – | (9 ± 3) ng | (96 ± 10) ng | (48 ± 21) ng | (67 ± 33) ng | (650 ± 260) ng | (29 ± 9) ng | – | (11 ± 1) ng | (12 ± 3) ng | – | 89 ± 58^a,b ppb | 54 ± 20^b ppb | 12 ± 4^b ppb | 261 ± 21^a ppb | Concentration in jejunum [2]: 39 ± 17^b ppb; Concentration in kidney [2]: 76 ± 38^a,b ppb; Concentration in liver [2]: 96 ± 38^a,b ppb; Concentration in lung [2]: 38 ± 13^b ppb; Concentration in plasma [3]: 2 ± 1^b ppb; Concentration in stomach [2]: 11 ± 1^b ppb; Concentration in testes [2]: 11 ± 3^b ppb
